The target in experiment [1] is T1, hERG (Homo sapiens, UniProt Q12809).
T1 construct: expressed in transfected cells; host or cells: HEK293 (membrane fraction)
In words: Competitive radioligand binding, hERG. The settings on record: HEK293 membranes, 3H-dofetilide 5 nM. The protocol:
(§1) Competitive radioligand binding assays were used to determine the affinity of the test compounds for a particular receptor. Various concentrations of the non-labelled test compound were added to the incubation mixture with the membrane fraction, containing the receptor of interest, and a fixed low concentration (nM) of the radioligand. During the incubation the radioligand bound to the receptor, but this was inhibited by the non-labelled test compound in proportion to its binding affinity and concentration.
(§2) Cell lines were established that stably express the human variant of the receptor under investigation after transfection with the appropriate cDNA (Table 1). Transfected cells were grown under standard culture conditions, and membrane fractions were obtained upon centrifugation and homogenisation of the cells. Optimal membrane dilutions for binding studies were determined and aliquots were stored at −70° C. until use. In a 96-well plate format, the appropriate radioligand was added to the membrane preparation containing the receptor under investigation. Compound solutions were prepared in DMSO, and diluted 100-fold into the multiwell plate to a final test concentration of 10^−9 to 10^−5 M. After incubation with the test compound, the unbound radioligand was removed by filtration on G/F filters with a Filtermate 96. Microscint™ was added to the washed filter plates and the radioactivity bound to the receptor was measured by liquid scintillation counting in a TopCount (Packard). To measure the Non-Specific Binding (NSB), a high concentration of the non-radiolabeled ligand was added to wells containing the membrane fraction and the radioligand.
(§3) From this, the pIC50 value (inhibitory concentration causing 50% displacement of specific binding) was determined, as well as an estimate of the slope of the plot (Hill coefficient).

Experiment [2] concerns the target T2, Alpha2A (Homo sapiens, UniProt P08913).
T2 construct: expressed in transfected cells; host or cells: CHO (membrane fraction)
T2 sequence (P08913 1-465): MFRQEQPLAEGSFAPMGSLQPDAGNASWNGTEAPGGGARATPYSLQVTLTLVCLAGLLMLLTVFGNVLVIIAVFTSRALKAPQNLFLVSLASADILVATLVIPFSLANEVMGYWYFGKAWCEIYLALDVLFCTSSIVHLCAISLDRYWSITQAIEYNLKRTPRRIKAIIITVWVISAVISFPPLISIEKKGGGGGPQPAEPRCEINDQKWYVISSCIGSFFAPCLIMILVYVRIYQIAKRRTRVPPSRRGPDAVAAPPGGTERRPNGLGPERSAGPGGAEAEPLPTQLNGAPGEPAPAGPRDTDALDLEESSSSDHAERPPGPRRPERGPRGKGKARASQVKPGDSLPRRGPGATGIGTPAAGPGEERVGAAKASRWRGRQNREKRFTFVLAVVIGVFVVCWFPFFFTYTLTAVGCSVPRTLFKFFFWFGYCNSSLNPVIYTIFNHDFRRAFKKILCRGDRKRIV
Briefly: Competitive radioligand binding, Alpha2A. The settings on record: CHO membranes, 3H-rauwolscine 1 nM; for IC50: read-out: pIC50 Alpha2A (converted). As to the method:
as §1, §2

Experiment [3] deals with T3, 5HT4B (Homo sapiens, UniProt Q13639).
T3 construct: expressed in transfected cells; host or cells: HEK293 (membrane fraction)
Briefly: Competitive radioligand binding, 5HT4B. The conditions noted are these: HEK293 membranes, 3H-GR113808 0.1 nM; for IC50: read-out: pIC50 5HT4B (converted). As to the method:
as §1, §2, §3

For experiment [4], the target named is T4, Alpha1A (Homo sapiens, UniProt P35348).
T4 construct: expressed in transfected cells; host or cells: CHO (membrane fraction)
T4 sequence (P35348 1-466): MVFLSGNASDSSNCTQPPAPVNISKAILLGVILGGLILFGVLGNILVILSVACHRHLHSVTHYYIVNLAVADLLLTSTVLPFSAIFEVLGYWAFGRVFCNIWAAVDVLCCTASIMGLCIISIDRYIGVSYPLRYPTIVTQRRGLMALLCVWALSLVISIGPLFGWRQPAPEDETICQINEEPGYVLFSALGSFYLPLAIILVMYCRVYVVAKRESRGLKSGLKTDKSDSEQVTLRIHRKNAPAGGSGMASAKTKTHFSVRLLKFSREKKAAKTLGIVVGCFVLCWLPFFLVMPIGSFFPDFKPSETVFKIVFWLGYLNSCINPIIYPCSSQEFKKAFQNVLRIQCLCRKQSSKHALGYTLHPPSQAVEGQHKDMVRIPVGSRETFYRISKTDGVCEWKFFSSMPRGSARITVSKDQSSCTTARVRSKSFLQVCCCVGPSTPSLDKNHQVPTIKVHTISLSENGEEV
In words: Competitive radioligand binding, Alpha1A. The conditions noted are these: CHO membranes, 3H-prazosin 0.25 nM; read-out: pIC50 Alpha1A (converted). The protocol: as §1, §2
(§4) Using in house developed software, a best-fit curve was fitted by a minimum sum of squares method to the plot of % inhibition vs. concentration of the test compound. From this, the pIC50 value (inhibitory concentration causing 50% displacement of specific binding) was determined, as well as an estimate of the slope of the plot (Hill coefficient).

Experiment [5] concerns the target T5, Alpha2B (Homo sapiens, UniProt P18089).
T5 construct: expressed in transfected cells; host or cells: CHO (membrane fraction)
T5 sequence (P18089 1-450): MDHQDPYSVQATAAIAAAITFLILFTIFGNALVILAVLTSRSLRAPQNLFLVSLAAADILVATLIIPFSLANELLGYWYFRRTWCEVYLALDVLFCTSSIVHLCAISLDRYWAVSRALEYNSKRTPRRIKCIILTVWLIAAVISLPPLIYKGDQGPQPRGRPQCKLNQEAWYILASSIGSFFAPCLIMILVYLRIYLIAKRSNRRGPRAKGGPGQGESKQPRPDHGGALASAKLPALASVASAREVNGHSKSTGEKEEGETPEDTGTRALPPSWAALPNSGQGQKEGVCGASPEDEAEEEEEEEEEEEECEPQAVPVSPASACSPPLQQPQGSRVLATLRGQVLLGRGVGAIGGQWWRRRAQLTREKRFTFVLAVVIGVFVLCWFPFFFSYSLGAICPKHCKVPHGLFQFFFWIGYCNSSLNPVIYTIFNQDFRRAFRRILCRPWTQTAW
In words: Competitive radioligand binding, Alpha2B. The conditions noted are these: CHO membranes, 3H-rauwolscine 1 nM; for IC50: read-out: pIC50 Alpha2B (converted). The protocol: as §1, §2

For experiment [6], the target named is T6, 5HT1A (Homo sapiens, UniProt P08908).
T6 construct: expressed in transfected cells; host or cells: HEK293 (membrane fraction)
T6 sequence (P08908 1-422): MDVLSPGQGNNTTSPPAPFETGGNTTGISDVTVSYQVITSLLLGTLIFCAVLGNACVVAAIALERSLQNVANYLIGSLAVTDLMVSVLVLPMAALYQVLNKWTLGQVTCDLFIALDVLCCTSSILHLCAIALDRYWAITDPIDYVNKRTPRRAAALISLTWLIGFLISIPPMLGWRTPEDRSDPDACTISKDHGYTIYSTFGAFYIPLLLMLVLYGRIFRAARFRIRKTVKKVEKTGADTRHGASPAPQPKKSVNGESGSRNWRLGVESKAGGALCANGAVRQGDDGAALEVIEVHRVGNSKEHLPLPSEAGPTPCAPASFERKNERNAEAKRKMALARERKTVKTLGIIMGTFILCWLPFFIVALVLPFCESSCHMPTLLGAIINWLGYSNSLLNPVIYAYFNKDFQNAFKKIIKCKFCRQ
Briefly: Competitive radioligand binding, 5HT1A. The settings on record: HEK293 membranes, 3H-8-OH-DPAT 0.5 nM; read-out: pIC50 5HT1A (converted). As to the method: as §1, §2, §4

The results in this text go back to patent US9139523B2, “5-HT2B receptor antagonists” (Janssen Pharmaceutica, NV, priority 2010, dated 2015).

T3 sequence (Q13639 whole entry): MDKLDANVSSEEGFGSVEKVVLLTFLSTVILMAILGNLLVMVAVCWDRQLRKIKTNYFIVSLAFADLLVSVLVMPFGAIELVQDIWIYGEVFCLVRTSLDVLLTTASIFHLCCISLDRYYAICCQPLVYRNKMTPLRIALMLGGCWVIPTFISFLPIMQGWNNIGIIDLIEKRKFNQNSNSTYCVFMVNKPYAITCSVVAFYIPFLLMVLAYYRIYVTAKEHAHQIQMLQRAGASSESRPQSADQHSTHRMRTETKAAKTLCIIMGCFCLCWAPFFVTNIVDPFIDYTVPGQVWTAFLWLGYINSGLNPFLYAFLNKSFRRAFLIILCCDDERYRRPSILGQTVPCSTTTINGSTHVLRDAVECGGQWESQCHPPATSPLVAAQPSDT
T1 sequence (Q12809 whole entry): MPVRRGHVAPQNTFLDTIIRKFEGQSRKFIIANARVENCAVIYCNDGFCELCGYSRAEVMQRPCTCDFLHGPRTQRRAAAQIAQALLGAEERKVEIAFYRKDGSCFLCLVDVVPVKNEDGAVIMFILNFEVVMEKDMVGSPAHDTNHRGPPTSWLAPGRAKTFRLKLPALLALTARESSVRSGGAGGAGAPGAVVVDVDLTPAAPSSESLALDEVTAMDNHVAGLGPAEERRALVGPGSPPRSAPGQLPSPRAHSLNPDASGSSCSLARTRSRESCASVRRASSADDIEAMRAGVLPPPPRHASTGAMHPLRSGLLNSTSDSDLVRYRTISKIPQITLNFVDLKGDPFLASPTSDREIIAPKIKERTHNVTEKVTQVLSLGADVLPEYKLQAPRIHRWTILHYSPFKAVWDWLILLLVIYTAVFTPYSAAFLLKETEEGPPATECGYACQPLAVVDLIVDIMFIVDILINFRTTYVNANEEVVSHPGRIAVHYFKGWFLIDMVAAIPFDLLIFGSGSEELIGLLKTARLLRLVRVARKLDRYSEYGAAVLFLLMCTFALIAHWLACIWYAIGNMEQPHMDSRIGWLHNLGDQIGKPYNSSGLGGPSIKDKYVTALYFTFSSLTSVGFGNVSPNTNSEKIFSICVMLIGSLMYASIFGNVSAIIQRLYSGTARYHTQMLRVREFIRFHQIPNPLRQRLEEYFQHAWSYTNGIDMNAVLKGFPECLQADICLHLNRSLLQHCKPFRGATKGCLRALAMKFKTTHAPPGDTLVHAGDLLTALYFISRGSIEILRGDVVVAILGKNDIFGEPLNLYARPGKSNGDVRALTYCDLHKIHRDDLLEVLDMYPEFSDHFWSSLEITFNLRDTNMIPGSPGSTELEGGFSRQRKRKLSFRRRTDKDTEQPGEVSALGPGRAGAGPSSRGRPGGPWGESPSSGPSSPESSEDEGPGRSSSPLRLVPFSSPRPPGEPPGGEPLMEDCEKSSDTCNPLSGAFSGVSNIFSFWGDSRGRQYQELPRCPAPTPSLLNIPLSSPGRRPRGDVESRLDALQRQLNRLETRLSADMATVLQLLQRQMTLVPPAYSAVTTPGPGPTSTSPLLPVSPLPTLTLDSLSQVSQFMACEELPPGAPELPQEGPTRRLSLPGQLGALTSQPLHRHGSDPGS

For `COc1cc(N)c(Cl)cc1C(=O)N[C@@H]1CCN(CCCOc2ccc(F)cc2)C[C@H]1F` (racemic) [(±)-7, trans-4-amino-5-chloro-N-{3-fluoro-1-[3-(4-fluorophenoxy)-propyl]-piperidin-4-yl}-2-methoxybenzamide], the IC50 in experiment [1] is 234 nM; in experiment [2], 3630 nM; in experiment [3] it was 617 nM; in experiment [4], more than 10000 nM; in experiment [5], 2510 nM; in experiment [6], 1820 nM.
On to `COc1cc(N)c(Cl)cc1C(=O)N[C@H]1CCN(CCCOc2ccc(F)cc2)C[C@H]1F` (racemic) [(±)-12, cis-4-amino-5-chloro-N-{3-fluoro-1-[3-(4-fluorophenoxy)-propyl]-piperidin-4-yl}-2-methoxybenzamide], for which the IC50 is 316 nM in experiment [1]; 4790 nM in experiment [2]; 115 nM in experiment [3]; 447 nM in experiment [4]; 2510 nM in experiment [5]; 4170 nM in experiment [6].
As for `COc1cc(N)c(Cl)cc1C(=O)NC1CCN(CCCOc2ccc(F)cc2)CC1(F)F` (racemic) [(±)-17, 4-amino-5-chloro-N-{3,3-difluoro-1-[3-(4-fluorophenoxy)-propyl]-piperidin-4-yl}-2-methoxybenzamide], the IC50 was 7590 nM in experiment [1]; more than 10000 nM in experiment [2]; more than 10000 nM in experiment [3]; more than 10000 nM in experiment [4]; more than 10000 nM in experiment [5]; 7940 nM in experiment [6].
`COc1cc(N)c(Cl)cc1C(=O)N[C@@H]1CCN(CCCOc2ccc(F)cc2)C[C@H]1F` (single isomer, unassigned) [(+)-7, trans-4-amino-5-chloro-N-{3-fluoro-1-[3-(4-fluorophenoxy)-propyl]-piperidin-4-yl}-2-methoxybenzamide]: the IC50 in experiment [1] is 288 nM; in experiment [2], more than 10000 nM; in experiment [3], 871 nM; in experiment [4], 525 nM; in experiment [5], 2630 nM; in experiment [6] it was 676 nM.
Turning to `COc1cc(N)c(Cl)cc1C(=O)N[C@H]1CCN(CCCOc2ccc(F)cc2)C[C@H]1F` (single isomer, unassigned) [(+)-12, cis-4-amino-5-chloro-N-{3-fluoro-1-[3-(4-fluorophenoxy)-propyl]-piperidin-4-yl}-2-methoxybenzamide], the IC50 in experiment [1] was 178 nM; in experiment [3], 126 nM; in experiment [4] it was 550 nM; in experiment [5], 3390 nM; in experiment [6], 741 nM.
`COc1cc(N)c(Cl)cc1C(=O)N[C@@H]1CCN(CCCOc2ccc(F)cc2)C[C@H]1F` (single isomer, unassigned) [(−)-7, trans-4-amino-5-chloro-N-{3-fluoro-1-[3-(4-fluorophenoxy)-propyl]-piperidin-4-yl}-2-methoxybenzamide]: the IC50 in experiment [1] is 316 nM; in experiment [2], 7760 nM; in experiment [3] it was 437 nM; in experiment [4], 398 nM; in experiment [5], 6030 nM; in experiment [6], 1100 nM.
Regarding `COc1cc(N)c(Cl)cc1C(=O)N[C@H]1CCN(CCCOc2ccc(F)cc2)C[C@H]1F` (single isomer, unassigned) [(−)-12, cis-4-amino-5-chloro-N-{3-fluoro-1-[3-(4-fluorophenoxy)-propyl]-piperidin-4-yl}-2-methoxybenzamide], the IC50 in experiment [1] was 191 nM; in experiment [2] it was 8130 nM; in experiment [3], 537 nM; in experiment [4] it was 331 nM; in experiment [5] it was 5250 nM; in experiment [6], 1860 nM.
As to `COc1cc(N)c(Cl)cc1C(=O)NC1CCN(CCCOc2ccc(F)cc2)CC1(F)F` (single isomer, unassigned) [Compound (−)-17, 4-amino-5-chloro-N-{3,3-difluoro-1-[3-(4-fluorophenoxy)-propyl]-piperidin-4-yl}-2-methoxybenzamide], the “pIC50 hERG” value in experiment [1] was less than 5. The “pIC50 Alpha2A” value in experiment [2] is listed as less than 5. The “pIC50 5HT4B” value in experiment [3] is less than 5. Moreover, the IC50 in experiment [4] is 7760 nM; in experiment [6] it was more than 10000 nM. In addition, the “pIC50 Alpha2B” value in experiment [5] is recorded as less than 5.
Turning to `COc1cc(N)c(Cl)cc1C(=O)NC1CCN(CCCOc2ccc(F)cc2)CC1(F)F` (single isomer, unassigned; (+)) [(+)-17, 4-amino-5-chloro-N-{3,3-difluoro-1-[3-(4-fluorophenoxy)-propyl]-piperidin-4-yl}-2-methoxybenzamide], the IC50 is more than 10000 nM in experiment [1]; more than 10000 nM in experiment [2]; more than 10000 nM in experiment [3]; more than 10000 nM in experiment [4]; more than 10000 nM in experiment [5]; 5620 nM in experiment [6].
